33 compounds from patent US11365177B2, “Chemical uncouplers of respiration and methods of use thereof” (Dana-Farber Cancer Institute, Inc., priority 2017, dated 2022) can be followed below.

Peptide text beside a SMILES is read from it. * marks the point of attachment. Oleoyl = CCCCCCCC/C=C\CCCCCCCC(=O)*

One assay concerns C2C12 cells. Description: Measurement of cellular respiration (Seahorse), uncoupling bioactivity. The format is cell-based. Conditions: Mus musculus, Table 2, various head groups, 50 μM compound, maximal increase versus basal oligomycin-treated respiration, means SEM, n=3-6/group, read-out: % stimulation of respiration (baseline = 100%). As for the experimental part: Oligomycin was purchased from EMD Millipore, and FCCP and rotenone were purchased from Sigma. C2C12 cells were seeded at 35,000 cells/well in an XF24 cell culture microplate (V7-PS, Seahorse Bioscience) and analyzed the following day. On the day of analysis, the cells were washed once with Seahorse respiration buffer (8.3 g/l DMEM, 1.8 g/l NaCl, 1 mM pyruvate, 20 mM glucose, pen/strep), placed in 0.5 ml Seahorse respiration buffer, and incubated in a CO2-free incubator for 1 h. Port injection solutions were prepared as follows (final concentrations in assay in parentheses): 10 μM oligomycin (1 μM final), 500 μM indicated compound (50 μM final), 2 μM FCCP (0.2 μM final), and 30 μM rotenone (3 μM final). The Seahorse program was run as follows: basal measurement, 3 cycles; inject port A (oligomycin), 3 cycles; inject port B (compounds), 8 cycles; inject port C (FCCP), 3 cycles; inject port D (rotenone), 3 cycles. Each cycle consisted of mix 2 min, wait 0 min, and measure 2 min. For data expressed as a percentage of oligomycin-treated basal, the respiration at cycle 6 was normalized to 100%, and the maximum respiration at any time point between cycles 7 and 15 inclusive was used.
Tables 1-4 show uncoupling bioactivity of compounds of the disclosure with different fatty acid side chains. Respiration in C2C12 cells is shown as maximal increases versus basal oligomycin-treated respiration, which is normalized to 100%. Data are shown as means SEM, n=3-6/group.
As to `CCCCCCCC/C=C\CCCCCCCC(=O)N[C@@H](Cc1c[nH]c2ccccc12)C(=O)O` [Compound 8, Oleoyl-L-tryptophan], the activity at 50 µM is 147 ± 9%.
On the same count and under the same terms, the same measure for `CCCCCCCC/C=C\CCCCCCCC(=O)N[C@H](C(=O)O)[C@@H](C)CC` [Compound 5, Oleoyl-L-isoleucine]: 167 ± 14%; for `CCCCCCCC/C=C\CCCCCCCC(=O)NCCc1ccccc1` [Compound 3, N-phenethyloleamide]: 104 ± 4%.
On to `CCCCCCCC/C=C\CCCCCCCC(=O)N[C@@H](Cc1ccccc1)C(=O)O` [Compound 1, Oleoyl-L-phenylalanine], for which the activity at 50 µM worked out at 161 ± 12%.
The same measure, in the same setting: the same measure for `CCCCCCCC/C=C\CCCCCCCC(=O)N[C@H](Cc1ccccc1)C(=O)O` [Compound 2, Oleoyl-D-phenylalanine]: 173 ± 9%; for `CCCCCCCC/C=C\CCCCCCCC(=O)N[C@@H](CC(C)C)C(=O)O` [Compound 4, Oleoyl-L-leucine]: 178 ± 13%.
On the same count and under the same terms, the same measure for `CCCCCCCC/C=C\CCCCCCCC(=O)N[C@@H](CCC(N)=O)C(=O)O` [Compound 6, Oleoyl-L-glutamine]: 164 ± 4%.
On the same count and under the same terms, the same measure for `CCCCCCCC/C=C\CCCCCCCC(=O)NCC(=O)NCC(=O)O` [Compound 12, Oleoylglycylglycine] (Oleoyl-Gly-Gly-OH): 206 ± 32%; for `CCCCCCCC/C=C\CCCCCCCC(=O)N[C@@H](Cc1ccc(O)cc1)C(=O)O` [Compound 10, Oleoyl-L-tyrosine]: 105 ± 13%; for `CCCCCCCC/C=C\CCCCCCCC(=O)N1CCC[C@H]1C(=O)O` [Compound 7, Oleoyl-L-proline]: 182 ± 7%.
On to `CCCCCCCC/C=C\CCCCCCCC(=O)N[C@@H](CCC(=O)O)C(=O)O` [Compound 11, Oleoyl-L-glutamic acid], for which the activity at 50 µM was 106 ± 7%.
For the compound `CCCCCCCC/C=C\CCCCCCCC(=O)NCCC(=O)O` [Compound 13, 3-Oleamidopropanoic acid], the activity at 50 µM was 185 ± 10%.
On to `CCCCCCCC/C=C\CCCCCCCC(=O)N[C@@H](CCCCN)C(=O)O` [Compound 9, Oleoyl-L-lysine], for which the activity at 50 µM worked out at 108 ± 4%.

The assay is the same for the next values; noted with them: Mus musculus, Table 3, various fatty acid side chains, 50 μM compound, maximal increase versus basal oligomycin-treated respiration, means SEM, n=3-6/group, read-out: % stimulation of respiration (baseline = 100%).
Turning to `CCCCCCCC/C=C\CCCCCCCCCC(=O)N[C@@H](Cc1ccccc1)C(=O)O` [Compound 24, (Z)-Icos-11-enoyl-L-phenylalanine], the activity at 50 µM was determined as 103 ± 3%.
`CCCCCCCCCCCCCCCCCC(=O)N[C@@H](Cc1ccccc1)C(=O)O` [Compound 16, Stearoyl-L-phenylalanine]: the activity at 50 µM came to 148 ± 12%.
On the same count and under the same terms, the same measure for `CCCCCC/C=C\CCCCCCCCCC(=O)N[C@@H](Cc1ccccc1)C(=O)O` [Compound 23, (Z)-Octadec-11-enoyl-L-phenylalanine]: 115 ± 8%; for `CCCCC/C=C\C/C=C\C/C=C\C/C=C\CCCC(=O)N[C@@H](Cc1ccccc1)C(=O)O` [Compound 25, ((5Z,8Z,11Z,14Z)-Icosa-5,8,11,14-tetraenoyl)-L-phenylalanine]: 200 ± 12%; for `CCCCCCCC/C=C/CCCCCCCC(=O)N[C@@H](Cc1ccccc1)C(=O)O` [Compound 21, (E)-Octadec-9-enoyl-L-phenylalanine]: 107 ± 3%.
Same read-out and setting: the same measure for `CCCCCCCCCCC/C=C\CCCCC(=O)N[C@@H](Cc1ccccc1)C(=O)O` [Compound 22, (Z)-Octadec-6-enoyl-L-phenylalanine]: 110 ± 12%; for `CCCCCCCCCCCCCCCCCCCC(=O)N[C@@H](Cc1ccccc1)C(=O)O` [Compound 17, Icosanoyl-L-phenylalanine]: 95 ± 8%.
Still for that read-out and setting: the same measure for `CCCCC/C=C\C/C=C\CCCCCCCC(=O)N[C@@H](Cc1ccccc1)C(=O)O` [Compound 19, ((9Z,12Z)-Octadeca-9,12-dienoyl)-L-phenylalanine]: 218 ± 10%.
With `CCCCCCCCCCCC(=O)N[C@@H](Cc1ccccc1)C(=O)O` [Compound 14, Dodecanoyl-L-phenylalanine], the activity at 50 µM turned out to be 96 ± 4%.
Same read-out and setting: the same measure for `CCCCCCCCCCCCCCCC(=O)N[C@@H](Cc1ccccc1)C(=O)O` [Compound 15, Palmitoyl-L-phenylalanine]: 180 ± 20%.
The same measure, in the same setting: the same measure for `CCCCCCCCCCCCCCCCCCCCCC(=O)N[C@@H](Cc1ccccc1)C(=O)O` [Compound 18, Docosanoyl-L-phenylalanine]: 100 ± 3%; for `CC/C=C\C/C=C\C/C=C\C/C=C\C/C=C\CCCC(=O)N[C@@H](Cc1ccccc1)C(=O)O` [Compound 26, ((5Z,8Z,11Z,14Z,17Z)-Icosa-5,8,11,14,17-pentaenoyl)-L-phenylalanine]: 259 ± 43%.
The same measure, in the same setting: the same measure for `CC/C=C\C/C=C\C/C=C\C/C=C\C/C=C\C/C=C\CCC(=O)N[C@@H](Cc1ccccc1)C(=O)O` [Compound 27, ((4Z,7Z,10Z,13Z,16Z,19Z)-Docosa-4,7,10,13,16,19-hexaenoyl)-L-phenylalanine]: 166 ± 11%; for `CCC/C=C\C/C=C\C/C=C\CCCCCCC(=O)N[C@@H](Cc1ccccc1)C(=O)O` [Compound 20, ((8Z,11Z,14Z)-Octadeca-8,11,14-trienoyl)-L-phenylalanine]: 109 ± 12%.

Still in this assay, the particulars now being: Mus musculus, Table 4, urea analogs, 50 μM compound, maximal increase versus basal oligomycin-treated respiration, means SEM, n=3-6/group, read-out: % stimulation of respiration (baseline = 100%).
With `CCCCCCCC/C=C\CCCCCCCCNC(=O)N[C@@H](Cc1ccccc1)C(=O)O` [Compound 29, (Z)-(Octadec-9-en-1-ylcarbamoyl)-L-phenylalanine], the activity at 50 µM worked out at 97 ± 5%.
Still for that read-out and setting: the same measure for `CCCCCCCC/C=C\CCCCCCCCNC(=O)NCC(=O)O` [Compound 28, (Z)-(Octadec-9-en-1-ylcarbamoyl)glycine]: 104 ± 3%.

The assay is the same for the next values; noted with them: Mus musculus, Table 5, cyclic head groups, 50 μM compound, maximal increase versus basal oligomycin-treated respiration, means SEM, n=3-6/group, read-out: % stimulation of respiration (baseline = 100%).
As for `CCCCCCCC/C=C\CCCCCCCC(=O)N1c2ccccc2C[C@H]1C(=O)O` [Compound 35, (S)-1-Oleoylindoline-2-carboxylic acid], the activity at 50 µM was found to be 146 ± 5%.
Consider `CCCCCCCC/C=C\CCCCCCCC(=O)N1CCc2ccccc2C1C(=O)O` (stereo not drawn) [Compound 32, 2-Oleoyl-1,2,3,4-tetrahydroisoquinoline-1-carboxylic acid], for which the activity at 50 µM was found to be 216 ± 17%.
On the same count and under the same terms, the same measure for `CCCCCCCC/C=C\CCCCCCCC(=O)N1CCCC[C@H]1C(=O)O` [Compound 30, (S)-1-Oleoylpiperidine-2-carboxylic acid]: 174 ± 3%; for `CCCCCCCC/C=C\CCCCCCCC(=O)N1Cc2ccccc2C[C@H]1C(=O)O` [Compound 31, (S)-2-Oleoyl-1,2,3,4-tetrahydroisoquinoline-3-carboxylic acid]: 187 ± 19%.
